Data on three compounds can be found in ChEMBL document CHEMBL1146461, “Vibsane diterpenoids from the leaves and flowers of Viburnum odoratissimum” (2004).

Each structure is given as a SMILES string.

Assay [1] in a line: Cytotoxicity against human HONE1 assessed as survival at 20 ug/ml by MTS method. The following applies: read-out: Survival. It counts as functional. On the technique in general: Tetrazolium assays rely on reduction of a dye to a coloured formazan, in cell work by metabolically active cells.
For assay [2], the system named is NUGC-3. Description: Cytotoxicity against human NUGC3 assessed as survival at 20 ug/ml by MTS method. The class given is functional. The following applies: read-out: Survival.

Regarding `CC(=O)C[C@@H]1C(=O)C(COC(C)=O)=CC[C@](C)(C/C=C/C(C)(C)OC(C)=O)[C@H]1/C=C/OC(=O)C=C(C)C`, the viability at 20 µg/mL in assay [1] and in assay [2] was 0% each time. On to `C=C(C)C(CC[C@@]1(C)CC=C(COC(C)=O)C(=O)[C@@H](CC(C)=O)[C@@H]1/C=C/OC(=O)C=C(C)C)OC(C)=O` (stereo not given in full), for which the viability at 20 µg/mL in assay [1] and in assay [2] was 0% throughout. `C=C(C)C(O)CC[C@@]1(C)CC=C(CO)C(=O)[C@H](CC(C)=O)[C@@H]1/C=C/OC(=O)C=C(C)C` (stereo not given in full): the viability at 20 µg/mL in assay [2] was 58%.
